This is an account of results in publication PMC10464297, “Reevaluation of bromodomain ligands targeting BAZ2A” (Protein Science : A Publication of the Protein Society, 2023).

Entries after “also recorded” stand apart in the source; their conditions may differ.

Data set [1] deals with PC3 (AR‐negative) PCa cells. The experiment in a line: 2D proliferation assay (resazurin), PC3. It counts as cell-based. How it is done:
Cell cultures, proliferation assay and spheroid gro wth […]
streptomycin and 2 m M L-glutamine. All cells were regularly tested for mycoplasma contamination.
For the proliferation assay, cells were counted with a hemocytometer and seeded in triplicates in 96-well plates (4 .5x10^3 cells/well for 22Rv1 and 2.0x103 for PC3) and let adhere overnight at 37°C, […]
transfected with siRNA for BAZ2A , RLUC or KIF11, as detailed below. The cells were incubated for 1, 3, 6 (PC3) and 9 days (22Rv1) and the medium containing either the carrier or the inhibitors was replaced every 3 day s. Cell proliferation and viability were determined at day 1, 3, 6 and 9 by adding 10% resazurin sodium salt solution (0. 03 mg/ml powder from Sigma -Aldrich) directly into each well and incubating them for 4h at 37°C, 5% CO 2. The absorbance at 570/600 nm was measured using a Varioskan plate reader. The reduction of the resazur in sodium salt was calculated using the formula: (Abs x – Abs 0. 1%DMSO day1)/(Abs 0. 1%DMSO day9 - Abs 0. 1%DMSO day1). The growth rate was analysed using the linear regression algorithm of GraphPad Prism. […]

In data set [2] the test system is heterogeneous PCa cell population. Also on record: method as in Peña‐Hernández et al., [2021]. The following applies: ref Peña‐Hernández et al., [2021]; cited from earlier work.
Data set [3] deals with panel of receptors, channels and transporters. Details: method as in https://www.thesgc.org/chemical-probes/BAZ2-ICR. The following applies: ref https://www.thesgc.org/chemical-probes/BAZ2-ICR; cited from earlier work.
A further data set deals with PCa cancer stem cells. Also on record: method as in Peña‐Hernández et al., [2021]. As to conditions: ref Peña‐Hernández et al., [2021]; cited from earlier work.
The test system of the next data set is TNBC cells. Details: method as in Bevill et al., [2019]. The following applies: single agent; ref Bevill et al., [2019]; cited from earlier work.
Another data set concerns PCa cells. Description: RT-qPCR of genes affected by BAZ2A genetic ablation. It counts as cell-based. As to conditions: 25 μM, 6 days, PC3 and 22Rv1. How it is done:
equipped with a Leica DFC450C digital camera. The area of each spheroid was measured using ImageJ and the average area for each condition was calculated. The growth rate was analysed using the segmental linear regression algorithm of GraphPad Prism. The appropriateness of the model was evaluated by considering the R square values and the Replicates test (Suppl. Table 6).
Cells were counted and plated in 6 well (for RNA extraction) or 96 well (for growth curve) at a […]
and 4.5x10^3 cells/well for 22Rv1) and let attach overnight at 37°C, 5% CO2. […] The gene expression was analyzed after 6 days from the cells seeded in the 6 well, while the viability was analyzed in the same way as for the cells treated with the […]
Cells were previously counted and plated in 6 well at a fixed amount (60.000 cells/well for PC3; 135.000 cells/well for 22Rv1). The RNA was extracted using the phenol-chloroform method and its concentration was measured by Nano spectrophotometer. […]
Total protein content was extracted from cells transfected with siRNA B AZ2A or siRNA RLU C (negative control). […] Cells were lysed using RIPA buffer and protein concentration was determined by Bradford Reagent (Sigma-Aldrich), according to the manufacturer’s instructions. […]
On the technique in general: Real-time PCR tracks product formation cycle by cycle.

Regarding `Cn1cc(CCn2cnc(-c3cnn(C)c3)c2-c2ccc(C#N)cc2)cn1` [BAZ2‐ICR], the “effect on 2D growth of PC3 cells” value in data set [1] (2D‐cell culture, PC3) is given as “did not affect growth; also recorded: but not BAZ2‐ICR, reduces 2D growth”. The “effect on viability of PC3 cells” value in data set [1] (2D‐cell culture, PC3) was “did not affect growth or viability”. Besides, the “Slope (best-fit, linear regression of growth curve)” value is listed as 0,1625 in data set [1] (PC3, 0.5 µM); 0,1599 in data set [1] (PC3, 5 µM); 0,1532 in data set [1] (PC3, 10 µM); 0,1580 in data set [1] (PC3, 25 µM). The “proliferation of heterogeneous PCa cell population” value in data set [2] was “does not affect the proliferation”. The “profile on panel of receptors, channels and transporters” value in data set [3] is given as “clean”. In the data set with PCa cancer stem cells, the “efficacy on PCa cancer stem cells” value is “effective on PCa cancer stem cells”. Moreover, in the data set on TNBC cells, the “effect on TNBC cells” value is listed as “did not affect TNBC cells”. Also, the “transcription of a set of genes affected by BAZ2A genetic ablation” value in the data set on PCa cells is “did not comparably alter the transcription”.
